Assay results reported in patent US20250295664A1, “THERAPEUTIC COMBINATION OF KRAS G12C INHIBITOR AND TEAD INHIBITOR” (SANOFI, priority 2022, published 2025).
pIC50: −log10 of the molar value.

Assays:
Assay type in all cases: cell-based
[1] = test system: KRAS G12C mutant NSCLC cell line HOP-62; test: IC50 shift experiment, cell proliferation (Cell Titer Glo), 144 h; settings: for pIC50: Homo sapiens, TEAD inhibitor alone, 144 h, read-out: IC50 TEADi; for KRAS G12Ci No1 fold change vs 0.1 μM: IC50 shift of KRAS G12C inhibitor N°1, no TEADi vs TEAD inhibitor 0.1 μM; for KRAS G12Ci No1 fold change vs 1 μM: IC50 shift of KRAS G12C inhibitor N°1, no TEADi vs TEAD inhibitor 1 μM; for KRAS G12Ci No2 fold change vs 0.1 μM: IC50 shift of KRAS G12C inhibitor N°2, no TEADi vs TEAD inhibitor 0.1 μM; for KRAS G12Ci No2 fold change vs 1 μM: IC50 shift of KRAS G12C inhibitor N°2, no TEADi vs TEAD inhibitor 1 μM
Method: The KRAS G12C mutant NSCLC cell line HOP-62 was used for this study. Cells were seeded in 96 well plates at 1250 cells per well and incubated 24 hours at 37° C. and 5% CO2. The KRAS G12C inhibitors N°1 and N°2 were used at 10 concentrations and combined with TEAD inhibitors used at 2 concentrations. Compound dilution and distribution to cells was performed on the TECAN MCA384 robotic platform. […] Cell proliferation was measured using Cell Titer Glo from PROMEGA (luminescence). For each KRAS G12C inhibitor, IC50 values in these cell lines were determined in the absence or presence of TEAD inhibitors.

[2] = test system: HOP-62 KRAS G12C mutant NSCLC cells; test: Ray design combination experiment, cell proliferation (Cell Titer Glo), 96 h; settings: potentiation of KRAS G12C inhibitor N°1 IC50 by the TEAD inhibitor at 370 nM, Ki = potentiation index IC50ai/IC50a
Method: (§1) The NSCLC cell line HOP62 which carries a KRASG12C mutation was used for this study. HO-P62 cells were seeded in 384 well plates at 300 cells per well and incubated 24 hours at 37° C. and 5% CO2. The KRAS G12C inhibitor N°1 used at 14 concentrations ranging from 10,000 nM to 0.006 nM was combined with TEAD inhibitors used at 18 concentrations ranging from 10,000 nM to 0.0001 nM, added to HOP-62 cells and incubated for 96 hours at 37° C. and 5% CO2. Compound dilution and distribution to cells was performed on the TECAN MCA384 robotic platform. Cell proliferation was measured using Cell Titer Glo from PROMEGA (luminescence).
(§2) Three independent experiments with triplicates per experiment were performed and analyzed using the combination analysis software Combo2Screen. TEAD inhibitors were defined as non-active in this cell line, their effect on the KRAS G12C inhibitor was determined as an effect of potentiation and was quantified using the potentiation index based on the following equation: […]

[3] = test system: H-2030 KRAS G12C mutant NSCLC cells; test: Ray design combination experiment, cell proliferation (Cell Titer Glo), 144 h; settings: potentiation of KRAS G12C inhibitor N°1 IC50 by the TEAD inhibitor at 41 nM, Ki = potentiation index IC50ai/IC50a
Method: as §1, with “H-2030” for “HOP62”, “H-2030” for “HO-P62”, “250” for “300”, “H-2030” for “HOP-62”, “144” for “96”
as §2, with “triplicates/experiment” for “triplicates per experiment”

| SMILES | pIC50 [1] | KRAS G12Ci No1 fold change vs 0.1 μM [1] [fold] | KRAS G12Ci No1 fold change vs 1 μM [1] [fold] | KRAS G12Ci No2 fold change vs 0.1 μM [1] [fold] | KRAS G12Ci No2 fold change vs 1 μM [1] [fold] | Mean fold potentiation 1/Ki [2] [fold] | Mean fold potentiation 1/Ki [3] [fold] |
| --- | --- | --- | --- | --- | --- | --- | --- |
| C=CC(=O)Nc1ccc2c(c1)C(O[C@H]1CC[C@H](C(F)(F)F)CC1)CC2 (relative stereo) [TEAD inhibitor N°6, N-(3-(((trans)-4-(trifluoromethyl)cyclohexyl)oxy)-2,3-dihydro-1H-inden-5-yl) acrylamide] | < 5.00 | 4 | 6 | 6 | 8 |  |  |
| C=CC(=O)Nc1ccc(C)c(Oc2ccc(Cl)cc2)c1 [TEAD inhibitor N°1, N-(3-(4-chlorophenoxy)-4-methylphenyl) acrylamide, reference compound] | 5.06 | 8 | 9 |  |  | 8 | 33 |
| C=CC(=O)Nc1ccc2c(c1)CCC2Nc1cccc(C(F)(F)F)c1 (stereo not shown) [TEAD inhibitor N°2, N-(1-((3-(trifluoromethyl)phenyl)amino)-2,3-dihydro-1H-inden-5-yl) acrylamide] |  |  |  |  |  | 8 | 18 |
| C=CC(=O)Nc1ccc2c(ccn2-c2ccc(C(F)(F)F)cc2)c1 [TEAD inhibitor N°3, N-(1-(4-(trifluoromethyl)phenyl)-1H-indol-5-yl) acrylamide] | < 5.00 | 6 | 7 | 9 | 8 |  |  |
| C=CC(=O)Nc1ccc2c(c1)c(COC)cn2-c1ccc(C(F)(F)F)cc1 [TEAD inhibitor N°4, N-(3-(methoxymethyl)-1-(4-(trifluoromethyl)phenyl)-1H-indol-5-yl) acrylamide] | < 5.00 | 5 | 10 | 8 | 12 |  |  |
| C=CC(=O)Nc1ccc2c(c1)c(C)cn2Cc1cccc(C(F)(F)F)c1 [TEAD inhibitor N°5, N-(3-methyl-1-(3-(trifluoromethyl)benzyl)-1H-indol-5-yl) acrylamide] | < 5.00 | 4 | 7 | 8 | 13 |  |  |
| C=CC(=O)Nc1ccc2c(c1)C(Nc1ccc(F)c(F)c1)CC2 (stereo not shown) [TEAD inhibitor N°7, N-(3-((3,4-difluorophenyl)amino)-2,3-dihydro-1H-inden-5-yl) acrylamide] | < 5.00 | 6 | 13 | 9 | 21 |  |  |
| C=CC(=O)Nc1ccc2c(c1)C(Oc1ccc(C(F)(F)F)cc1)CC2 (stereo not shown) [TEAD inhibitor N°8, N-(3-(4-(trifluoromethyl)phenoxy)-2,3-dihydro-1H-inden-5-yl) acrylamide] | < 5.00 | 6 | 9 | 10 | 12 |  |  |
